From publication PMC9289666, “Highly Parallelized, Multicolor Optogenetic Recordings of Cellular Activity for Therapeutic Discovery Applications in Ion Channels and Disease-Associated Excitable Cells” (Frontiers in Molecular Neuroscience, 2022)
Like-named read-outs stand apart in the source and are kept apart here.

Columns and labels:
human Nav.1.7 = molecular target: T1, human Nav.1.7 (Homo sapiens, UniProt Q15858); experiment: Nav1.7 spiking HEK assay on Swarm; format: cell-based; conditions: for Hit identification in Prestwick Chemical Library pilot screen: compounds at 1 μM, cutoff 0.5 mean spike amplitude
T1 construct: expressed in transfected cells
T1 sequence (Q15858 whole entry): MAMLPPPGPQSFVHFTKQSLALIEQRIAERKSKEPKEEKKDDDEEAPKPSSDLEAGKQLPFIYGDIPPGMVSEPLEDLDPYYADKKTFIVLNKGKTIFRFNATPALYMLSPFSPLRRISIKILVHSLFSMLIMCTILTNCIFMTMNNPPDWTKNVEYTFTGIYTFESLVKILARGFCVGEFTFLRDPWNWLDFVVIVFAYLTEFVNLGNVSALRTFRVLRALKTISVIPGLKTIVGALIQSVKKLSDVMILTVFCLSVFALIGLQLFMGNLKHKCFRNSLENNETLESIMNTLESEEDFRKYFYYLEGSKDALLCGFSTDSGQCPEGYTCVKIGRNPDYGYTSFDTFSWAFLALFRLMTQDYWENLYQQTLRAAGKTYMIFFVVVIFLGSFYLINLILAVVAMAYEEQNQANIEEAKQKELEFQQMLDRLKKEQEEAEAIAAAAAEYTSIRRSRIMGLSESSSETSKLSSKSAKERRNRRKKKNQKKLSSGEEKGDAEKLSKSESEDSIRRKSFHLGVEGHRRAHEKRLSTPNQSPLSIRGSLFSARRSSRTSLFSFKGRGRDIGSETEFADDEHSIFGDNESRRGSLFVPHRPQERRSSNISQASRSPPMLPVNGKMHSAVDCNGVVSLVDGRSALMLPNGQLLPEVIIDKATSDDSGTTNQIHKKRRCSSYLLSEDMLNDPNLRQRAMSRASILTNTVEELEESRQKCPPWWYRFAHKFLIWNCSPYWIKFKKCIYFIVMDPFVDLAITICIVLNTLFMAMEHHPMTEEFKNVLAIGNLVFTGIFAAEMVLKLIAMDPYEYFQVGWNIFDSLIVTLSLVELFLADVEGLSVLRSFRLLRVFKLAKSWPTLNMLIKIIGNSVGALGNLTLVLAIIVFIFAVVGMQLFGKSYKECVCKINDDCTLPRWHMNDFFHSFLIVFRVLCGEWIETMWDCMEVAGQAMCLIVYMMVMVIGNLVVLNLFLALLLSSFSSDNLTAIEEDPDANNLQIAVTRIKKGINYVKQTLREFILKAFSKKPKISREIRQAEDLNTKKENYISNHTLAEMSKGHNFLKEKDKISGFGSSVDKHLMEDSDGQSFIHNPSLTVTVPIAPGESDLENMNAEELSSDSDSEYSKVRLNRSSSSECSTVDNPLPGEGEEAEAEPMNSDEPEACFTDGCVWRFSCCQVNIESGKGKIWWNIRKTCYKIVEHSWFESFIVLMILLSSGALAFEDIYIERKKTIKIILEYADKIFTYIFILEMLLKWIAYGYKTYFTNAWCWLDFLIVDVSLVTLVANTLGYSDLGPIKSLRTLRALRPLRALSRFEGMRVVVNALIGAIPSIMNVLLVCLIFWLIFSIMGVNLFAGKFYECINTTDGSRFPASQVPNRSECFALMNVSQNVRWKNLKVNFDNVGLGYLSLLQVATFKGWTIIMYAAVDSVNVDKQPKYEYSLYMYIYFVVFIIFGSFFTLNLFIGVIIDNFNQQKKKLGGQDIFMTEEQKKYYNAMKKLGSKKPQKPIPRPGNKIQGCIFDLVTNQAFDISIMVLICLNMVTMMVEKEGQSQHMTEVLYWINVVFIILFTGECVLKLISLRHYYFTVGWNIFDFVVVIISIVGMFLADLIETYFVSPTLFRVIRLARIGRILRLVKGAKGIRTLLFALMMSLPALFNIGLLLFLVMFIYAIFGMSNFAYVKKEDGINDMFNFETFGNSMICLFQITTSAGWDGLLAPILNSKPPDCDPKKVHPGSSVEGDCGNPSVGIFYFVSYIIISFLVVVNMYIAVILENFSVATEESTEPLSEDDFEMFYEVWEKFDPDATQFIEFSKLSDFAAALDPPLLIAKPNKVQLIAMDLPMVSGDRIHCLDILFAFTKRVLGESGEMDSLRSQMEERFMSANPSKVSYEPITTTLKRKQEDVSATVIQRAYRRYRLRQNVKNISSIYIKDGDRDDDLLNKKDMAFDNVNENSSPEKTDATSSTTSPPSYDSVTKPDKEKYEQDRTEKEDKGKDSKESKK

Nav1.5 = conditions: cited from earlier work
[1] = normalized mean spike amplitude score, Prestwick library compounds
[2] = read-out: Nav1.5 Ionworks (IC50), automated patch clamp, literature reported, ref Harmer et al., 2011

Row | SMILES | Nav1.7 Swarm (score at 3 µM) (human Nav.1.7; [1]) | IC50 (Nav1.5; [2]) | also measured
1 | CN(C)C(=O)C(CCN1CCC(O)(c2ccc(Cl)cc2)CC1)(c1ccccc1)c1ccccc1 [Loperamide] |  |  | Nav1.7 Swarm (score at 3 µM) (human Nav.1.7): 0.04; IC50 (Nav1.5): 2.9 µM
2 | CCOC(=O)N1CCC(=C2c3ccc(Cl)cc3CCc3cccnc32)CC1 [Loratadine] | 0.62 |  | 
3 | CC12CC3CC(C)(C1)CC(N)(C3)C2 [Memantine] | 0.98 | 92.6 µM | 
4 | CN1CCCCC1CCN1c2ccccc2Sc2ccc([S+](C)[O-])cc21 (centres unmarked) [Mesoridazine] | 0.40 | 7.2 µM | 
5 | CCOC(=O)Nc1ccc2c(c1)N(C(=O)CCN1CCOCC1)c1ccccc1S2 [Moricizine] | 0.15 | 1.2 µM | 
6 | COC(=O)C1=C(C)NC(C)=C(C(=O)OCCN(C)Cc2ccccc2)C1c1cccc([N+](=O)[O-])c1 (centres unmarked) [Nicardipine] | 0.07 | 4.3 µM | 
7 | COC(=O)C1=C(C#N)NC(C)=C(C(=O)OC(C)C)C1c1cccc([N+](=O)[O-])c1 (centres unmarked) [Nilvadipine] | 0.24 | 2.3 µM | 
8 | CNCCC=C1c2ccccc2CCc2ccccc21 [Nortriptyline] | 0.19 | 2 µM | Hit identification in Prestwick Chemical Library pilot screen (human Nav.1.7): hits
9 | Cc1cc2c(s1)Nc1ccccc1N=C2N1CCN(C)CC1 [Olanzapine] |  |  | Nav1.7 Swarm (score at 3 µM) (human Nav.1.7): 1.09
10 | C1CCC(C(CC2CCCCN2)C2CCCCC2)CC1 (centres unmarked) [Perhexiline] | 0.59 | 3.4 µM | 
11 | CCN(CC)CCNC(=O)c1ccc(N)cc1 [Procainamide] | 1.00 |  | 
12 | CCc1nc(N)nc(N)c1-c1ccc(Cl)cc1 [Pyrimethamine] | 0.99 | 24.6 µM | 
13 | CCN(CC)CCCC(C)Nc1c2ccc(Cl)cc2nc2ccc(OC)cc12 (centres unmarked) [Quinacrine] | 0.96 | 20.2 µM | 
14 | C=C[C@H]1C[N@@]2CC[C@H]1C[C@@H]2[C@@H](O)c1ccnc2ccc(OC)cc12 [Quinidine] |  | 9.7 µM | 
15 | COC(=O)[C@H]1[C@H]2C[C@@H]3c4[nH]c5cc(OC)ccc5c4CCN3C[C@H]2C[C@@H](OC(=O)c2cc(OC)c(OC)c(OC)c2)[C@@H]1OC [Reserpine] | 1.01 | 10.5 µM | 
16 | Cc1nc2n(c(=O)c1CCN1CCC(c3noc4cc(F)ccc34)CC1)CCCC2 [Risperidone] |  |  | Nav1.7 Swarm (score at 3 µM) (human Nav.1.7): 0.89
17 | CN[C@H]1CC[C@@H](c2ccc(Cl)c(Cl)c2)c2ccccc21 [Sertraline] |  |  | Nav1.7 Swarm (score at 3 µM) (human Nav.1.7): 0.87
18 | CSc1ccc2c(c1)N(CCC1CCCCN1C)c1ccccc1S2 (centres unmarked) [Thioridazine] | 0.04 | 3.5 µM | 
19 | CN(C)CCC=C1c2ccccc2COc2ccccc21 [doxepin] |  |  | Hit identification in Prestwick Chemical Library pilot screen (human Nav.1.7): hits
20 | CCc1nn(CCCN2CCN(c3cccc(Cl)c3)CC2)c(=O)n1CCOc1ccccc1 [nefazodone] |  |  | Hit identification in Prestwick Chemical Library pilot screen (human Nav.1.7): hits

Now from value to compound, other results behind:

Row | Nav1.7 Swarm (score at 3 µM) (human Nav.1.7; [1]) | SMILES | IC50 (Nav1.5; [2]) | also measured
21 | 0.96 | Cc1cccc(C)c1NC(=O)C1CCCCN1C (centres unmarked) [Mepivacaine] | 81.4 µM | 
22 | 0.97 | CC#C[C@]1(O)CC[C@H]2[C@@H]3CCC4=CC(=O)CCC4=C3[C@@H](c3ccc(N(C)C)cc3)C[C@@]21C [Mifepristone] | 25.8 µM | 
23 | 1.06 | COc1c(N2C[C@@H]3CCCN[C@@H]3C2)c(F)cc2c(=O)c(C(=O)O)cn(C3CC3)c12 [Moxifloxacin] |  | 
24 | 0.97 | COC(=O)C1=C(C)NC(C)=C(C(=O)OC)C1c1ccccc1[N+](=O)[O-] [Nifedipine] |  | 
25 | 0.89 | O=c1[nH]c2ccccc2n1C1CCN(CCCC(c2ccc(F)cc2)c2ccc(F)cc2)CC1 [Pimozide] | 1.7 µM | 
26 | 0.95 | CCCNC(C)C(=O)Nc1ccccc1C (centres unmarked) [Prilocaine] | 72.6 µM | 
27 | 1.07 | CCN(CC)CCOC(=O)c1ccc(N)cc1 [Procaine] | 84.6 µM | 
28 | 0.20 | CCCNCC(O)COc1ccccc1C(=O)CCc1ccccc1 (centres unmarked) [Propafenone] |  | 
29 | 0.63 | CNCCCC1c2ccccc2C=Cc2ccccc21 [Protriptyline] | 3.1 µM | 
30 | 0.14 | Nc1nc2ccc(OC(F)(F)F)cc2s1 [Riluzole] |  | 
31 | 0.22 | OCc1cc(C(O)CNCCCCCCOCCCCc2ccccc2)ccc1O (centres unmarked) [Salmeterol] | 7.2 µM | 
32 | 0.64 | O=C1NCCN1CCN1CCC(c2cn(-c3ccc(F)cc3)c3ccc(Cl)cc23)CC1 [Sertindole] | 8.1 µM | 
33 | 0.39 | CC(C)(C)c1ccc(C(O)CCCN2CCC(C(O)(c3ccccc3)c3ccccc3)CC2)cc1 (centres unmarked) [Terfenadine] |  | 
34 | 0.25 | CN1CCN(CCCN2c3ccccc3Sc3ccc(C(F)(F)F)cc32)CC1 [Trifluoperazine] | 7.4 µM | 
35 | 0.37 | CC(CN(C)C)CN1c2ccccc2CCc2ccccc21 (centres unmarked) [Trimipramine] | 2.7 µM | Hit identification in Prestwick Chemical Library pilot screen (human Nav.1.7): hits
